Measurements published in PMC8350192 (Heliyon, 2021).
pIC50: −log10 of the molar value.

What was measured:
[1] = biological target: T1, Porcine Pancreas Lipase (PPL) (Sus scrofa, UniProt P00591); experiment: Inhibition of lipase activity assay in vitro; type: biochemical; conditions: for inhibition at 6.25 µg/mL / inhibition at 12.5 µg/mL / inhibition at 25 µg/mL / inhibition at 50 µg/mL / inhibition at 100 µg/mL / inhibition at 200 µg/mL: read-out: Inhibition Percentage (%)
T1 sequence (P00591 1-450): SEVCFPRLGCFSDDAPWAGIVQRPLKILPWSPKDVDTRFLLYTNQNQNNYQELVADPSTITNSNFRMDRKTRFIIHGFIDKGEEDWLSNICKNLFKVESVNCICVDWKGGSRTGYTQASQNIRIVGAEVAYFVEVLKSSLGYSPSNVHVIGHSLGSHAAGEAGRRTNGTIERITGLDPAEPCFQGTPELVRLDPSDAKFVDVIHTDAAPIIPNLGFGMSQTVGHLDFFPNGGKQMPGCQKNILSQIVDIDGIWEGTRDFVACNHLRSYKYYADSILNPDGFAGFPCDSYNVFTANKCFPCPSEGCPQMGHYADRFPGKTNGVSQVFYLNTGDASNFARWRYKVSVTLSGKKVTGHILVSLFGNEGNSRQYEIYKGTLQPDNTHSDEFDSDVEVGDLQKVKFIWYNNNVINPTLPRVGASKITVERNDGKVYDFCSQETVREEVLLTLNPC

[2] = test system: gastrointestinal and pancreatic lipases; conditions: ref Guercioloni, 1997; Bellinger and Peikin, 2002; Othman et al., 2021; cited from earlier work

pIC50 [1] | inhibition at 6.25 µg/mL [1] [%] | inhibition at 12.5 µg/mL [1] [%] | inhibition at 25 µg/mL [1] [%] | inhibition at 50 µg/mL [1] [%] | inhibition at 100 µg/mL [1] [%] | inhibition at 200 µg/mL [1] [%] | SMILES | prevention of absorption of dietary fat [2]
4.10 | 34 | 38.6 | 64.6 | 76.2 | 81.4 | 83.9 | Cn1c(=O)c2c(ncn2C)n(C)c1=O [Compound 2, caffeine] | 
4.47 | 29.4 | 59.2 | 64.2 | 77.6 | 86.7 | 89.6 | O=C(/C=C/c1ccc(O)c(O)c1)O[C@@H]1C[C@](O)(C(=O)O)C[C@@H](O)[C@H]1O [Compound 3, Chlorogenic acid] | 
 | 50.6 | 52.4 | 55.6 | 77.3 | 89.4 | 93.3 | CCCCCCCCCCC[C@@H](C[C@@H]1OC(=O)[C@H]1CCCCCC)OC(=O)[C@H](CC(C)C)NC=O [Orlistat] | approximately 30%
